The values that follow are results of earlier work, collected in US6488942B1, “Disinfecting agent” (DDG Dental Devices GmbH, priority 1997, dated 2002).

Consider `CC(=O)O.CC(=O)O.NC(=N\CCCCCC/N=C(N)/N=C(\N)Nc1ccc(Cl)cc1)/N=C(\N)Nc1ccc(Cl)cc1` [diacetate, Chlorhexidine diacetate], for which the solubility in water result was “soluble in water”.
